Entries after “also recorded” stand apart in the source; their conditions may differ. * marks the point of attachment. Boc = CC(C)(C)OC(=O)*
Tests used:
Wnt5a = assay: Western blot of secreted (sWnt5a) and cellular (cWnt5a) Wnt5a in RPE cells under UOS; assay type: cell-based, human
Procedure: To monitor transcription, translation, and secretion of Wnt5a, we performed western blot assays using cellular lysates and medium from hpRPE undergoing UOS+/−NPD1 at different time points. Medium was precipitated using Methanol/Chloroform to bring down all secreted Wnt5a.
The pellet can be re-suspended and denatured in 100 μl of 2× Laemmli sample buffer (Bio-Rad Laboratories, Hercules, Calif.) at 95° C. for 5 min. MCAo brain tissue and cell samples can be homogenized using RIPA (Thermo Fisher Scientific, Waltham, Mass.) buffer supplemented with protease and phosphatase inhibitor cocktails (Millipore Sigma, Burlington, Mass.). In embodiments, the amount of 30 μg of total protein is loaded in NuPAGE® Novex® 4-12% Bis-Tris precast gels (Life Technologies Corporation, Carlsbad, Calif.) and run at constant 120V for about 1 hour and 20 min. Proteins can be transferred to μm Nitrocellulose membrane using Bio-Rad Trans-Blot® Turbo™ System (Bio-Rad Laboratories, Hercules, Calif.). ECL™ Plex Fluorescent Rainbow Markers (GE Healthcare, Chicago, Ill.) can be used as the ladder for protein's molecular weight. Membranes can be blocked using 5% non-fat dry milk (Bio-Rad Laboratories, Hercules, Calif.) in TBS with 1% Tween® 20 (TBST-10×) (Croda International, Snaith, United Kingdom) for 1 hour and incubated overnight with primary antibodies. Anti-mouse or anti-rabbit secondary antibodies conjugated with Cy3 or Cy5 can be used to visualize the protein of interest. Immunoblots can be documented using LAS 4000 imaging system (GE Healthcare Life Sciences, Marlborough, Mass.). A time course exposition can be produced in each case to prevent quantification of saturated images. In embodiments, densitometry data are obtained using ImageQuant™ TL software (GE Healthcare Life Sciences, Marlborough, Mass.).
The pellet was re-suspended and denatured in 100 μl of 2× Laemmli sample buffer (Bio-Rad Laboratories) at 95° C. for 5 min. MCAo brain tissue and cell samples were homogenized using RIPA (Thermo Fisher Scientific) buffer supplemented with protease and phosphatase inhibitor cocktails (Sigma). The amount of 30 μg of total protein was loaded in NuPAGE® Novex® 4-12% Bis-Tris precast gels (Life Technologies Corporation) or Mini-PROTEAN TGX Stain free gels 4-15% and ran at constant 120V for 1 hour and 20 min or 250 V for 40 min respectively. Proteins were transferred to μm Nitrocellulose or LF-PVDF membrane using Bio-Rad Trans-Blot® Turbo™ System (Bio-Rad Laboratories). ECL™ Plex Fluorescent Rainbow Markers (GE Healthcare) were used as the ladder for protein's molecular weight. […] A time course exposition was produced in each case to prevent quantification of saturated images. […]

rats subjected to MCAo = assay: Transient middle cerebral artery occlusion (MCAo): behavioral tests, neurological score; assay type: in vivo, rat; conditions: for neuronal damage / neuroprotection in stroke model (tissue and behavioral): rat MCAo, summary statements
Description: In certain embodiments, Male Sprague-Dawley rats (290-320 g; Charles River Lab, Wilmington, Mass., USA) are used for in vivo studies. For all surgical procedures, animals can be fasted and anesthesia can be induced with 3.5% isoflurane and 70% nitrous oxide and 30% oxygen. Animals can be orotracheally intubated; given atropine for secretions, pancuronium for immobilization; ventilated mechanically on a humidified mixture of 70% nitrous oxide, 1.0-1.5% isoflurane and a balance of oxygen. A femoral artery and vein can be catheterized for continuous blood pressure monitoring and periodic blood sampling for arterial gases and pH. PCO2 can be maintained at 35-40 mm Hg and P02 at 105-120 mm Hg by ventilator adjustments. Rectal temperature can be measured with a thermistor and maintained with a heating lamp at 37.0-37.5° C. Cranial (temporalis muscle) temperature also can be monitored and regulated with a separate warming lamp at 36.2-36.7° C.
The right MCA can be occluded for 2 h by intraluminal filament, as described previously (Belayev et al. 2011). Briefly, the right common carotid artery (CCA) and external carotid artery (ECA) can be exposed through midline neck incision, and then completely isolated from the surrounding nerves. The occipital branches of the ECA and pterygopalatine artery can be ligated. A 4-cm of 3-0 nylon filament, coated with poly-L-lysine can be advanced to the origin of MCA through the proximal ECA via internal carotid artery. The filament can be inserted 20 to 22 mm from the bifurcation of the CCA, according to the animal's body weight. The neck incision can then be closed, and the rats can be returned to their cages. […]
In certain embodiments, behavioral tests are conducted before, during MCAo (at 60 min), and then at 24 h, 48 h, 72 h, or 7 days after MCAo by an investigator blinded to the experimental groups. […] In embodiments, the severity of stroke injury is assessed by behavioral examination of each rat at 60 min after onset of MCAo. […]

CC/C=C\C[C@H](O)\C=C/C=C/C=C/[C@H](O)C/C=C\C/C=C\CCC(=O)O [NPD1, 10R,17S-dihydroxy-docosa-4Z,7Z,11E,13E,15Z,19Z-hexaenoic acid]
secreted Wnt5a (sWnt5a) in medium (Wnt5a; ARPE-19 cells, 600 μM H2O2 and 10 ng/ml TNFα, 6 hours, 100 nM NPD1): disappeared; also recorded: decreases band intensity close to control levels
secreted Wnt5a (sWnt5a) in medium (Wnt5a; hpRPE cells under UOS, Pitstop2 added 2 hours before harvesting): decreased Wnt5a in the medium; also recorded: decreased media sWnt5a; also recorded: decreases soluble Wnt5a

t-Boc-NH-Met-Asp-Gly-Cys-Glu-Leu-CO2H (Boc-MDGCEL-OH) [Box5]
neuronal damage / neuroprotection in stroke model (tissue and behavioral) (rats subjected to MCAo): significantly decreased; also recorded: beneficious at the behavioral level as well as in the reduction of stroke damage; also recorded: protection at the neurological/behavioral level as well as by reduction of stroke damage
neuronal damage / neuroprotection in stroke model (tissue and behavioral) (rats subjected to MCAo; listed as BOX5): remarkable neuroprotection
neurological score (total, tactile and proprioceptive placing) (rats subjected to MCAo; rat, 2 h MCAo, IV 1 h later, DHA 5 mg/kg or Box5 (1 mg/kg; 400 μg), days 1, 2, 3, 7, versus saline): remarkable similarity to that obtained by DHA treatment; also recorded: improvement in neurological score; also recorded: resembling DHA treatment; also recorded: neurological protection remarkable similar to that obtained by DHA treatment
